{
  "source": "paper PMC7179302",
  "about": "“Lead Optimization of Dehydroemetine for Repositioned Use in Malaria” (Antimicrobial Agents and Chemotherapy, 2020)",
  "key": {"[1]": {"tested_on": "mitochondrial membrane potential of P. falciparum strain K1 trophozoites", "test": "Rhodamine 123 staining for mitochondrial membrane potential, flow cytometry", "type": "cell-based, Plasmodium falciparum", "conditions": "deviation from infected blood without drugs", "method": "Changes in mitochondrial membrane potential were measured using rhodamine 123 (excitation wavelength, 511 nm; emission wavelength, 534 nm), a membrane-permeating cationic fluorescent dye ([49]), which accumulates by electrostatic attraction in the mitochondria because of its negative transmembrane potential. A change in the dye’s concentration in the mitochondria is caused by a depolarization event and can be visualized as a shift in the fluorescence intensity of rhodamine 123 ([50]). Draq5 (excitation wavelength, 647 nm; emission wavelength, >665 nm) is a far-red fluorescent DNA dye which is cell permeating and was used to distinguish the parasites in flow cytometry in the allophycocyanin (APC)-Cy7-A channel. SYBR green was not preferred for this experiment as it emits in the same channel as rhodamine 123 and would result in the overlap of emission signals. Fluorescence microscopy was used to visualize the localization of rhodamine 123 within the cytoplasm of the parasites (Fig. 9).\nA decrease in fluorescence intensity measured in the fluorescein isothiocyanate (FITC)-A channel indicates a loss of mitochondrial membrane potential. Atovaquone, a known mitochondrial inhibitor, was used as a control.\nCompounds were then washed away by centrifuging the cultures, and a pellet was prepared for each drug concentration. Pellets were then incubated with 1 ml of 200 nM rhodamine 123 for 1 h, followed by a further incubation with 100 μl of 5 μM Draq5 for 20 min. After a wash with PBS, the experiment was read with a flow cytometer on the FITC channel. Loss of mitochondrial membrane potential was indicated by a decrease in fluorescence intensity."}, "Entamoeba histolytica": {"tested_on": "Entamoeba histolytica", "design": "method as in PMID 15610563, PMID 24107123", "conditions": "cited from earlier work"}, "[2]": {"tested_on": "K1 strain of P. falciparum", "design": "method as in PMID 15610563, PMID 24107123", "conditions": "mean ± standard deviation; cited from earlier work"}, "[3]": {"tested_on": "P. falciparum strain 3D7A", "test": "3H-hypoxanthine incorporation assay, strain 3D7A", "type": "cell-based", "conditions": "Plasmodium falciparum; sensitive strain 3D7A, 3H-hypoxanthine incorporation; read-out: IC50 (μM) 3D7A", "method": "(§1) The cross-resistance assay used relies on the parasites’ incorporation of labeled 3H-hypoxanthine, which is proportional to P. falciparum growth. In vitro cross-resistance of the compounds is measured as the ratio between the IC50 for the tested P. falciparum strain and the IC50 for strain 3D7A. Every replicate from a multidrug-resistant (MDR) strain involved a simultaneous determination using a 3D7A replicate to avoid any artifact linked to experimental conditions.\n(§2) The three strains used for the cross-resistance assay were 3D7A, Dd2, and W2, based on their resistance profiles; the assay was carried out by GSK, Tres Cantos. Strain 3D7A is chloroquine sensitive, strain Dd2 is resistant to chloroquine, mefloquine, and pyrimethamine ([57]), and strain W2 is resistant to chloroquine, quinine, pyrimethamine, cycloguanil, and sulfadoxine (from the Malaria Research and Reference Reagent Resource Center [MR4]) ([58]). A culture of red blood cells (RBCs) parasitized by the corresponding strain (0.5% parasitemia, 2% hematocrit) in RPMI 1640, […], and 5 μM hypoxanthine was exposed to 9 dilutions (3-fold serial dilutions) of the compound starting at 5 μM. One hundred microliters of culture volume was plated in 96-well flat-bottom microtiter plates with 0.5 μl drug (200× stock in DMSO). Plates were incubated for 24 h at 37°C, 5% CO2, 5% O2, 90% N2. Next, 3H-hypoxanthine was added and plates were incubated for another 24-h period. After that, parasites were harvested on a glass fiber filter using a TomTec cell harvester 96. Filters were dried, and melt-on scintillator sheets were used to determine the incorporation of 3H-hypoxanthine. Radioactivity was measured using a MicroBeta counter. […] IC50 values were determined using the Grafit 7 program ([41])."}, "HepG2 cells": {"tested_on": "HepG2 cells", "test": "MTT assay for cell cytotoxicity against HepG2 cells", "type": "cell-based", "conditions": "HepG2 cells, 48 h; ± SD", "method": "HepG2 cells (University of Salford stocks, purchased from American Type Culture Collection [ATCC], USA), were grown in medium consisting of RPMI 1640, 2 mM L-glutamine, HEPES, 10% fetal bovine serum, 1% nonessential amino acids, and 1% penicillin-streptomycin. Cells were calculated on a hemocytometer to make a new cell-medium solution to a concentration of 5,000 cells/100 μl, and 100 μl of this new cell solution was added into each well of the 96-well plate. After 24 h of incubation, 100-μl amounts of the drug prepared in the medium were added to the wells. This was repeated in triplicate, and the plate was incubated for a further 48 h ([56]). After the incubation period, 50 μl of MTT solution was added to each well and incubated for 3 h. The liquid in each well was aspirated carefully, 200 μl of DMSO was added to each well, and the results were read on the Ascent plate reader."}, "P. falciparum strain Dd2": {"tested_on": "P. falciparum strain Dd2", "test": "microbe, parasite or virus in culture", "type": "cell-based", "conditions": "Plasmodium falciparum, DD2, read-out: IC50 (μM) Dd2", "method": "as §1, §2"}, "P. falciparum strain W2": {"tested_on": "P. falciparum strain W2", "test": "microbe, parasite or virus in culture", "type": "cell-based", "conditions": "Plasmodium falciparum, W2, read-out: IC50 (μM) W2", "method": "as §1, §2"}},
  "note": "Counter-ions that a name gives are not always drawn.",
  "data": [
    {"compound": "O=C1C(O)=C([C@H]2CC[C@H](c3ccc(Cl)cc3)CC2)C(=O)c2ccccc21", "note": "[Atovaquone, atovaquone]", "values": [
      {"measurement": "Change in fluorescence intensity (FITC-A mean) of rhodamine 123", "setting": "[1]; at 10× IC50, 2 h", "value": 43.17, "unit": "%"},
      {"measurement": "Change in fluorescence intensity (FITC-A mean) of rhodamine 123", "setting": "[1]; at IC50, 2 h", "value": 41.95, "unit": "%"}
    ]},
    {"compound": "CC[C@H]1CN2CCc3cc(OC)c(OC)cc3[C@@H]2C[C@@H]1C[C@H]1NCCc2cc(OC)c(OC)cc21", "note": "[Emetine dihydrochloride, emetine dihydrochloride, reference compound]", "values": [
      {"measurement": "IC50", "setting": "Entamoeba histolytica", "value": "26800 ± 1270", "unit": "nM"},
      {"measurement": "IC50", "setting": "[2]", "value": 47, "unit": "nM"},
      {"measurement": "IC50", "setting": "[3]", "value": 0.234, "unit": "µM"},
      {"measurement": "Change in fluorescence intensity (FITC-A mean) of rhodamine 123", "setting": "[1]; at 10× IC50, 2 h", "value": 35.13, "unit": "%"},
      {"measurement": "Change in fluorescence intensity (FITC-A mean) of rhodamine 123", "setting": "[1]; at IC50, 2 h", "value": 31.12, "unit": "%"},
      {"measurement": "LD50 (50% lethal dose), MTT assay", "setting": "HepG2 cells", "value": "199.2 ± 9.3", "unit": "nM"},
      {"measurement": "IC50", "setting": "P. falciparum strain Dd2", "value": 0.269, "unit": "µM"},
      {"measurement": "IC50", "setting": "P. falciparum strain W2", "value": 0.181, "unit": "µM"}
    ]}
  ]
}
